We go through one molecule from US20170037028A1 (BAYER PHARMA AKTIENGESELLSCHAFT, priority 2013, published 2017).

Format in all cases: cell-based
In assay [1] the target is T1, GLUT1 (Homo sapiens, UniProt P11166).
T1 sequence (P11166 1-492): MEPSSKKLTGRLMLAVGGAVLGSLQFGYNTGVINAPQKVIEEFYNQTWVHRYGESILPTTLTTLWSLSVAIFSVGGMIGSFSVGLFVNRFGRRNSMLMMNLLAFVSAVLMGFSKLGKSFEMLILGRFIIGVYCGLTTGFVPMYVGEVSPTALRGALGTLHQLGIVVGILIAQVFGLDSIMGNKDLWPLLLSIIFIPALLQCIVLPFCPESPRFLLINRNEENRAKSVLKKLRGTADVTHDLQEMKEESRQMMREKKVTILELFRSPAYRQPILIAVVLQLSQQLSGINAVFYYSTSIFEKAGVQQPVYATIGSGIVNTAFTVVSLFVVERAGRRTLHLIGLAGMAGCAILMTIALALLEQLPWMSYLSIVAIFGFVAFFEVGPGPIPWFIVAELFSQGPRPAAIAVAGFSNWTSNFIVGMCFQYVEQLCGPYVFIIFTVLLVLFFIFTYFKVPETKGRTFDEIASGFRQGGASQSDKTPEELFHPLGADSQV
Kind of assay: 2-deoxy-D-glucose (3H) uptake assay, GLUT1 inhibition in cell lines. The settings on record: H460 cell line; 3H-2-deoxy-D-glucose uptake; read-out: IC50 regarding GLUT1 inhibition. The protocol:
Cells (e.g. H460 or CHO-K1) were cultured under standard conditions. 10000 cells per well were seeded in clear 96 well tissue culture isoplate plates and cultured overnight (PerkinElmer, 1450-516) under standard conditions. Culture medium was removed and cells were washed two times with 100 μL KRP buffer and then incubated for 45 minutes at 37° C. (KRP buffer: 10 mM sodium hydrogen phosphate, 130 mM sodium chloride, 5 mM potassium chloride, 1.3 mM magnesium sulfate, 1.3 mM calcium chloride (pH 7.5), 50 mM HEPES (pH 7.5), 4.7 mM potassium chloride, 1.25 mM magnesium sulfate, 1.25 mM calcium chloride) each. KRP wash buffer was removed and compound 126 (diluted in KRP buffer) was added and incubated for 30 minutes at 37° C. 200 nM radioligand (radioligand 2[1,2] 3H-Deoxy D-Glucose in KRP buffer) were added and incubated for 5 minutes at room temperature. The supernatant was removed and cells were washed with 100 μL ice-cold KRP for two times each. 25 μL of Lysis buffer (1% Triton-X, 0.5N sodium hydroxide) were added and incubated at room temperature for 5 minutes. 75 μL scintillation solution (Microscint-20, PerkinElmer) were added and the plates were shaken for 1 minute. The plates were incubated for 3 h at room temperature and the counts were determined by using a Wallace MicroBeta counter (60 seconds per well).

Assay [2] deals with T1, GLUT1. Kind of assay: Indirect measurement of GLUT1 activity by quantification of intracellular ATP levels (glucose induced ATP increase). The arrangement: endogenous in cells; host or cells: DLD1 or CHO-K1. The settings on record: read-out: IC50 regarding glucose induced ATP increase (GLUT1 inhibition). The method, boiled down: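 Intracellular ATP was measured by CellTiter-Glo luminescence as an indirect readout of transport: glucose-driven for GLUT1, fructose-driven for GLUT2. DLD1 or CHO-K1 cells were used alongside an oxidative phosphorylation inhibitor. Beforehand, cells were held overnight in glucose-free 1% FCS medium to deplete ATP.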

Another assay concerns the target T2, GLUT2 (Homo sapiens, UniProt P11168).
T2 construct: host or cells: DLD1 or CHO-K1
T2 sequence (P11168 1-524): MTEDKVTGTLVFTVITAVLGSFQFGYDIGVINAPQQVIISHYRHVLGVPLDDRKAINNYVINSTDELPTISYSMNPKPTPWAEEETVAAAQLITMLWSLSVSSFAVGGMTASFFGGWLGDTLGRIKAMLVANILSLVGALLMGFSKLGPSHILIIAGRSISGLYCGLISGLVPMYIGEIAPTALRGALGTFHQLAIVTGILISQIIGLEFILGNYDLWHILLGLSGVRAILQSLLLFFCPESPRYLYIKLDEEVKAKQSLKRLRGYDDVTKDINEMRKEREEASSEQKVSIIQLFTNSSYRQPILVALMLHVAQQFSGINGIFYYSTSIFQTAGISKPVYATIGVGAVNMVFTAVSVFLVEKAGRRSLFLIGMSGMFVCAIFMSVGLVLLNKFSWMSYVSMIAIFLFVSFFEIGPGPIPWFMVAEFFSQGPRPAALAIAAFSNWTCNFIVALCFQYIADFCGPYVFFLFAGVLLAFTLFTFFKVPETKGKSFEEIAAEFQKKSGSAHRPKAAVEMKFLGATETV
Kind of assay: Indirect measurement of GLUT2 activity by quantification of intracellular ATP levels (fructose induced ATP increase). Particulars: 10 mM fructose, 1 μM Rotenone, 15 min; CellTiter-Glo ATP readout; read-out: IC50 regarding fructose induced ATP increase (GLUT2 inhibition). An excerpt: Indirect Measurement of GLUT1 and GLUT2 Activity by Quantification of Intracellular ATP Levels
It is well known that a combination of small-molecule inhibitors of mitochondrial electron transport chain and glucose catabolism synergistically suppress ATP production and impair cellular viability (Ulanovskaya et al., 2008, 2011; Liu, et al. 2001). We therefore used DLD1 or CHO-K1 cells in combination with an oxidative phosphorylation inhibitor to identify GLUT1 and GLUT2 inhibitors. Cell lines were maintained in DMEM medium supplemented with 10% FCS and 1% Penicillin-Streptomycin solution and 2% Glutamax. The cells were treated with trypsin and seeded into 384 plates at a density of 4000 cells/well. The cells were then cultured overnight in glucose free media containing 1% FCS to reduce intracellular ATP levels. […] The CellTiter-Glo® Luminescent Cell Viability Assay from Promega was then used to measure ATP Levels.

Consider `Cc1c(NC(=O)c2cc(C(N)=O)nc3ccccc23)c(C(F)(F)F)nn1Cc1ccc(C#N)cc1` [Example 126, N^4-[1-(4-cyanobenzyl)-5-methyl-3-(trifluoromethyl)-1H-pyrazol-4-yl]quinoline-2,4-dicarboxamide], for which the concentration for half-maximal inhibition (IC50) at GLUT1 [1] is 0.0154 µM; at GLUT1 [2], 0.0047 µM; at GLUT2 it was 85.4 µM.
